Source: BindingDB's records for doi:10.1016/j.ejmech.2007.04.019 (The Hebrew University of Jerusalem, 2008)
pIC50: −log10 of the molar value.

Key:
[1] = biological target: T1, Prostaglandin G/H synthase 2 (Homo sapiens, UniProt P35354); assay: Inhibition of cyclooxygenase-2
T1 sequence (P35354 whole entry): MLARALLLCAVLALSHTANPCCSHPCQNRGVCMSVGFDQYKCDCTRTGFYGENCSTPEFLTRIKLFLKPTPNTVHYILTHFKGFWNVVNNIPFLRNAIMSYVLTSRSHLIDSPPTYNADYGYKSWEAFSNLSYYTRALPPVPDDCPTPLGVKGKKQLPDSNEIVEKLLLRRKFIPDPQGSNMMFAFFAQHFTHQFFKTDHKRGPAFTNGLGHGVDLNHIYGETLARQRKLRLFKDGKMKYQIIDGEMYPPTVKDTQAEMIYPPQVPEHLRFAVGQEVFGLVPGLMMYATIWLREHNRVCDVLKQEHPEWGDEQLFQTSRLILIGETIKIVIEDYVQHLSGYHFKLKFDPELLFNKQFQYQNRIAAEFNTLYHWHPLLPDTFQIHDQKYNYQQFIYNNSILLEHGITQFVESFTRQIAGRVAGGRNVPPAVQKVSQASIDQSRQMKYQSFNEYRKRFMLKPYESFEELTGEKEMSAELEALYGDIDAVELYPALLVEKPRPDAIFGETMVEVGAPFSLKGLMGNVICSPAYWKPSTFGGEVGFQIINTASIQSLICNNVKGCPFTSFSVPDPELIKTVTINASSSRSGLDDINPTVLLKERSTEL

[2] = biological target: Prostaglandin G/H synthase 1 (Homo sapiens, UniProt P23219); assay: Inhibition of cyclooxygenase-1
Prostaglandin G/H synthase 1, sequence (P23219 whole entry): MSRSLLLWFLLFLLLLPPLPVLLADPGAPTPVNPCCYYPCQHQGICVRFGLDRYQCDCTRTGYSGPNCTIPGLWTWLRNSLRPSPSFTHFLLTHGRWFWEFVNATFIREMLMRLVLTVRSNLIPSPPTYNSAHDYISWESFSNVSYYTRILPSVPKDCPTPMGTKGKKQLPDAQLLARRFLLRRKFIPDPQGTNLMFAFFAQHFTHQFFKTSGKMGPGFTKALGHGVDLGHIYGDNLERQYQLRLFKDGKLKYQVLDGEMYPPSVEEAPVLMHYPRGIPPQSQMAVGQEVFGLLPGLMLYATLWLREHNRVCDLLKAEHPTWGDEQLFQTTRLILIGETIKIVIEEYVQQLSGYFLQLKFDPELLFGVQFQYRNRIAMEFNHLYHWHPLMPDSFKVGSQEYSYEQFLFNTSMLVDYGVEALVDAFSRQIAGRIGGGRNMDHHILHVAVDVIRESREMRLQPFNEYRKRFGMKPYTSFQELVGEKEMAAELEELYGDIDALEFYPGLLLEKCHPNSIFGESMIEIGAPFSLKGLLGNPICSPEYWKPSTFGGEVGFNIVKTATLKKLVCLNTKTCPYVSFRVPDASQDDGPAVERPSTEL

C=C[C@@H]1[C@@H](O)C[C@@H]2[C@]3(CC[C@]4(C)[C@@H]([C@H](C)CCC(OO)C(=C)C)CC[C@@]24C)C[C@]13CCC(=O)OC (some centres not stated)
pIC50 [1]: 5.33 | pIC50 [2]: 4.36
